Experimental data reported in patent US4251655A, “Substituted N-iminomethylpiperidines” (McNeilab, Inc., priority 1979, dated 1981).
Counter-ions that a name gives are not always drawn. Like-named read-outs stand apart in the source and are kept apart here.

Key:
gastric acid secretion [1] = experiment: Inhibition of gastric acid secretion (Total Acid Output) in rats; antisecretory activity; type: in vivo, Female Sprague-Dawley rats; details: for ED50: 1 h, read-out: ED50 (dose required to produce an average of 50% inhibition in Total Acid Output versus controls); for inhibition in vivo at 20 mg/kg: read-out: Percent Inhibition at 20 mg/kg id
Experimental: The compounds of the invention are useful for inhibition of gastric acid secretion as measured by the following test. Female Sprague-Dawley rats are fasted twenty-four hours before testing and are given water ad libidum while being kept in individual cages. On the day of testing, the rats are weighed and are selected so that the rats in each test weigh within a range of ± 20 grams.
Surgery is carried out under light ether anesthesia. As soon as the rat is anesthetized its teeth are removed and a mid-line incision is made on the abdomen about 11/2 inches in length and the stomach and duodenum are exposed. If at this point the stomach is filled with food or fecal material, the rat is discarded. If the condition of the stomach is acceptable, a purse string stitch is placed on the fundic portion of the stomach with a suture, taking care not to pierce any blood vessels in the area. A small nick is then made into the stomach in the center of the purse string, and a cannula, consisting of a small vinyl tube with a flange on one end, is put into the stomach, and the purse string stitch is closed tightly around the flange. The test compound is administered either intraduodonally (i.d.) immediately after surgery or orally (p.o.) one hour prior to surgery at doses generally ranging from about 0.25 to about 160 mg/kg in a volume of 0.5 ml/100 grams rat. Control rats receive the test vehicle, 0.5% aqueous methyl cellulose.
After the surgery and (in the case of i.d. administration) after administration of the test compound, the abdominal wall and skin are closed simultaneously with three or four 18 mm wound clips and a collecting tube is placed on the cannula. Each rat is then placed in a box in which a longitudinal slit has been made to allow the cannula to hand freely and to allow the rat to move about unencumbered. After the rat has been allowed to stabilize for thirty minutes, the collection tube on the cannula is discarded and replaced with a clean tube to receive the gastric juice. Collections are made at one hour. At the end of the study, the cannula is removed and the rat is sacrificed.
The sample of gastric contents collected is drained into a centrifuge tube and centrifuged to pack down the sediment. The volume is read and a 1 ml aliquot of the supernatant is put into a beaker containing 10 ml distilled water and is titrated to pH7 using 0.01 N sodium hydroxide. Results are determined for Volume, Titratable Acid and Total Acid Output, where Volume equals total ml of gastric juice minus sediment; Titratable Acid (meg/1) equals amount of 0.01 N sodium hydroxide needed to titrate the acid to pH7; and Total Acid Output equals Titratable Acid times Volume. Results are reported as the ED50 dose (mg/kg required to produce an average of 50% inhibition in Total Acid Output versus controls in all the animals tested for a particular compound) and as percent inhibition.
Following the test procedure previously described, the following compounds were tested for their antisecretory activity. The ED50 values for p.o. administration and the percent inhibition for i.d. administration at 20 mg/kg are tabulated below (R1 '=H except where noted): […]

gastric acid secretion [2] = experiment: as above; type: in vivo, Female Sprague-Dawley rats; details: rat; for ED50: ip, intraperitoneally (footnote ++), read-out: ED50 (compound administered intraperitoneally)
[3] = rat, po, one hour prior to surgery

SMILES: CCN=CN1CCC(C(c2ccccc2)c2ccccc2)CC1 [R1=diphenylmethyl; A=H; R2=H; R3=ethyl, 4-(Diphenylmethyl)-1-N-ethyliminomethyl-piperidine oxalate hemihydrate]
- ED50 (gastric acid secretion [1]; [3]): 4.3 mg/kg
- inhibition in vivo at 20 mg/kg (gastric acid secretion [1]; rat, id, 20 mg/kg): 100%

SMILES: Clc1ccc(CN=CN2CCC(C(c3ccccc3)c3ccccc3)CC2)cc1
- ED50 (gastric acid secretion [1]; [3]): 20.7 mg/kg
- inhibition in vivo at 20 mg/kg (gastric acid secretion [1]; rat, id, 20 mg/kg): 94%

SMILES: CCCCCCCCN=CN1CCC(C(c2ccccc2)c2ccc(C)cc2)CC1 (stereo not shown)
- inhibition in vivo at 20 mg/kg (gastric acid secretion [1]; rat, id, 20 mg/kg): 73%

SMILES: C#CCN=CN1CCC(C(c2ccccc2)c2ccccc2)CC1
- ED50 (gastric acid secretion [1]; [3]): 6.07 mg/kg
- inhibition in vivo at 20 mg/kg (gastric acid secretion [1]; rat, id, 20 mg/kg): 100%

SMILES: CCC(=N)N1CCC(C(c2ccccc2)c2ccccc2)CC1 [R1=diphenylmethyl; A=H; R2=ethyl; R3=H]
- ED50 (gastric acid secretion [1]; [3]): > 40 mg/kg
- inhibition in vivo at 20 mg/kg (gastric acid secretion [1]; rat, id, 20 mg/kg): 75%

SMILES: COc1ccc(C(c2ccccc2)C2CCN(C=N)CC2)cc1 (stereo not shown)
- ED50 (gastric acid secretion [1]; [3]): 12.1 mg/kg
- inhibition in vivo at 20 mg/kg (gastric acid secretion [1]; rat, id, 20 mg/kg): 100%

SMILES: C(=NC12CC3CC(CC(C3)C1)C2)N1CCC(C(c2ccccc2)c2ccccc2)CC1
- ED50 (gastric acid secretion [1]; [3]): 37 mg/kg
- inhibition in vivo at 20 mg/kg (gastric acid secretion [1]; rat, id, 20 mg/kg): 0%
- % inhibition at 80 mg/kg i.d. (gastric acid secretion [2]; i.d., 80 mg/kg (footnote)): 52%

SMILES: CCCCCCCCN=CN1CCC(C2c3ccccc3-c3ccccc32)CC1 [R1=9-fluorenyl; A=H; R2=H; R3=n-octyl]
- ED50 (gastric acid secretion [1]; [3]): 15.9 mg/kg
- inhibition in vivo at 20 mg/kg (gastric acid secretion [1]; rat, id, 20 mg/kg): 48%

SMILES: C(=NCCc1ccccc1)N1CCC(C(c2ccccc2)c2ccccc2)CC1
- ED50 (gastric acid secretion [1]; [3]): 3.7 mg/kg
- inhibition in vivo at 20 mg/kg (gastric acid secretion [1]; rat, id, 20 mg/kg): 100%

SMILES: CCCCCCCCCCN=CN1CCC(C(c2ccccc2)c2ccccc2)CC1 [R1=diphenylmethyl; A=H; R2=H; R3=n-decyl]
- ED50 (gastric acid secretion [1]; [3]): 8.2 mg/kg
- inhibition in vivo at 20 mg/kg (gastric acid secretion [1]; rat, id, 20 mg/kg): 79%

SMILES: CCCCCCCCN=CN1CCC(C(c2ccccc2)c2ccc(O)cc2)CC1 (stereo not shown) [4-[(4-hydroxyphenyl)phenylmethyl]-1-[(octylimino)methyl]piperidine]
- ED50 (gastric acid secretion [2]): 2 mg/kg

SMILES: CCCCCCCCN=CN1CCC(=C(c2ccccc2)c2ccccc2)CC1 [R1,A=benzhydrylidene; R2=H; R3=n-octyl]
- ED50 (gastric acid secretion [1]; [3]): 0.625 mg/kg
- inhibition in vivo at 20 mg/kg (gastric acid secretion [1]; rat, id, 20 mg/kg): 68.2%

SMILES: CCCCCCCCN=CN1CCC(C(O)(c2ccccc2)c2ccccc2)CC1
- ED50 (gastric acid secretion [2]): 5 mg/kg

SMILES: CCCCCCCCN=CN1CCCC(C(c2ccccc2)c2ccccc2)C1 (stereo not shown)
- ED50 (gastric acid secretion [1]; [3]): 18.3 mg/kg
- inhibition in vivo at 20 mg/kg (gastric acid secretion [1]; rat, id, 20 mg/kg): 92.2%

SMILES: CCCCCCCCCCCCN=CN1CCC(C(c2ccccc2)c2ccccc2)CC1.O=C(O)/C=C/C(=O)O [4-(Diphenylmethyl)-1-N-(n-dodecyliminomethyl)piperidine fumarate]
- ED50 (gastric acid secretion [1]; [3]): 53 mg/kg
- inhibition in vivo at 20 mg/kg (gastric acid secretion [1]; rat, id, 20 mg/kg): 80%

SMILES: C=CCN=CN1CCC(C(c2ccccc2)c2ccccc2)CC1
- ED50 (gastric acid secretion [1]; [3]): 10.2 mg/kg
- inhibition in vivo at 20 mg/kg (gastric acid secretion [1]; rat, id, 20 mg/kg): 100%

SMILES: CCCCCCN=CN1CCC(C(c2ccccc2)c2ccccc2)CC1 [R1=diphenylmethyl; A=H; R2=H; R3=n-hexyl]
- ED50 (gastric acid secretion [1]; [3]): 8.7 mg/kg
- inhibition in vivo at 20 mg/kg (gastric acid secretion [1]; rat, id, 20 mg/kg): 96%

SMILES: CCCCCCCN=CN1CCC(C(c2ccccc2)c2ccccc2)CC1
- ED50 (gastric acid secretion [1]; [3]): 11.6 mg/kg
- inhibition in vivo at 20 mg/kg (gastric acid secretion [1]; rat, id, 20 mg/kg): 72%

SMILES: C(=NCc1ccccc1)N1CCC(C(c2ccccc2)c2ccccc2)CC1 [R1=diphenylmethyl; A=H; R2=H; R3=benzyl]
- ED50 (gastric acid secretion [1]; [3]): 3.3 mg/kg
- inhibition in vivo at 20 mg/kg (gastric acid secretion [1]; rat, id, 20 mg/kg): 100%

SMILES: CCCCCCCCCN=CN1CCC(C(c2ccccc2)c2ccccc2)CC1 [R1=diphenylmethyl; A=H; R2=H; R3=n-nonyl]
- ED50 (gastric acid secretion [1]; [3]): 19.6 mg/kg
- inhibition in vivo at 20 mg/kg (gastric acid secretion [1]; rat, id, 20 mg/kg): 93%

SMILES: CC(C)N=CN1CCC(C(c2ccccc2)c2ccccc2)CC1
- ED50 (gastric acid secretion [1]; [3]): 9.8 mg/kg
- inhibition in vivo at 20 mg/kg (gastric acid secretion [1]; rat, id, 20 mg/kg): 96%

SMILES: Cl.N=CN1CCC(C(c2ccccc2)c2ccccc2)CC1.O [R1=diphenylmethyl; A=H; R2=H; R3=H, 4-Diphenylmethyl-1-iminomethylpiperidine hydrochloride hydrate]
- ED50 (gastric acid secretion [1]; [3]): 0.7 mg/kg
- inhibition in vivo at 20 mg/kg (gastric acid secretion [1]; rat, id, 20 mg/kg): 100%

SMILES: CCCCCCCCN=CN1CCC(C(c2ccccc2)c2ccccc2)CC1.O.O=C(O)/C=C/C(=O)O [R1=diphenylmethyl; A=H; R2=H; R3=n-octyl, 4-(Diphenylmethyl)-1-[(octylimino)methyl]piperidine Fumarate Hydrate]
- ED50 (gastric acid secretion [1]; [3]): 9.8 mg/kg
- inhibition in vivo at 20 mg/kg (gastric acid secretion [1]; rat, id, 20 mg/kg): 64%

SMILES: N=CN1CCC(c2ccccc2)CC1 [R1=phenyl; A=H; R2=H; R3=H]
- ED50 (gastric acid secretion [1]; [3]): ~40 mg/kg
- inhibition in vivo at 20 mg/kg (gastric acid secretion [1]; rat, id, 20 mg/kg): 77%

SMILES: N=CN1CCC(C(c2ccccc2)c2ccc(Cl)cc2)CC1 (stereo not shown)
- ED50 (gastric acid secretion [1]; [3]): 2.32 mg/kg
- inhibition in vivo at 20 mg/kg (gastric acid secretion [1]; rat, id, 20 mg/kg): 100%

SMILES: N=CN1CCCCC1 [N-iminomethylpiperidine]
- inhibition of gastric acid secretion at doses four times or greater than those at which the subject compounds are active (gastric acid secretion [1]; doses four times or greater than active doses of subject compounds): does not inhibit gastric acid secretion
- inhibition in vivo at 20 mg/kg (gastric acid secretion [1]; rat, id, 20 mg/kg): 0%
- inhibition of gastric acid secretion at a dose of 100 mg/kg p.o. (gastric acid secretion [1]; rat, p.o., 100 mg/kg): no inhibition whatsoever
- ED50 (mg/kg po): result in words (gastric acid secretion [1]; rat, po, at 80 (mg/kg)): Inactive
- inhibition of gastric acid secretion at 80 mg/kg i.d. (gastric acid secretion [2]; i.d., 80 mg/kg): no inhibition whatsoever

SMILES: CC(=O)C1(c2ccccc2)CCN(C=N)CC1 [R1=phenyl; A=drawing 20; R2=H; R3=H]
- inhibition in vivo at 20 mg/kg (gastric acid secretion [1]; Rattus norvegicus): 71%

SMILES: CCCCCCCCN=CN1CCC(C(c2ccccc2)c2ccc(OC)cc2)CC1 (stereo not shown) [4-[(4-methoxyphenyl)phenylmethyl]-1-[(octylimino)methyl]piperidine]
- ED50 (gastric acid secretion [1]; [3]): 16.9 mg/kg
- inhibition in vivo at 20 mg/kg (gastric acid secretion [1]; rat, id, 20 mg/kg): 62%

SMILES: C(=NCCCCc1ccccc1)N1CCC(C(c2ccccc2)c2ccccc2)CC1 [R1=diphenylmethyl; A=H; R2=H; R3=drawing 19]
- ED50 (gastric acid secretion [1]; [3]): 8.1 mg/kg
- inhibition in vivo at 20 mg/kg (gastric acid secretion [1]; rat, id, 20 mg/kg): 82%

SMILES: COc1ccc(CN=CN2CCC(C(c3ccccc3)c3ccccc3)CC2)cc1
- ED50 (gastric acid secretion [1]; [3]): < 40 mg/kg
- inhibition in vivo at 20 mg/kg (gastric acid secretion [1]; rat, id, 20 mg/kg): 63%

SMILES: CCCCN=CN1CCC(C(c2ccccc2)c2ccccc2)CC1 [R1=diphenylmethyl; A=H; R2=H; R3=n-butyl]
- ED50 (gastric acid secretion [1]; [3]): 8.6 mg/kg
- inhibition in vivo at 20 mg/kg (gastric acid secretion [1]; rat, id, 20 mg/kg): 100%

SMILES: N=CN1CCC(Cc2ccccc2)CC1 [R1=benzyl; A=H; R2=H; R3=H]
- ED50 (gastric acid secretion [1]; [3]): 114 mg/kg
- inhibition in vivo at 20 mg/kg (gastric acid secretion [1]; rat, id, 20 mg/kg): 98%

SMILES: CCCCCCCCC=CCCCCCCCCN=CN1CCC(C(c2ccccc2)c2ccccc2)CC1
- ED50 (gastric acid secretion [1]; [3]): 66 mg/kg
- inhibition in vivo at 20 mg/kg (gastric acid secretion [1]; rat, id, 20 mg/kg): 78.9%

SMILES: CCCCCCCCN=C(C)N1CCC(C(c2ccccc2)c2ccccc2)CC1.[O-][Cl+3]([O-])([O-])O [4-(Diphenylmethyl)-1-[1-(octylimino)ethyl]-piperidine Monoperchlorate]
- ED50 (gastric acid secretion [1]; Rattus norvegicus, po): 14 mg/kg
- inhibition in vivo at 20 mg/kg (gastric acid secretion [1]; Rattus norvegicus): 98%

SMILES: N=CN1CCCC(C(c2ccccc2)c2ccccc2)C1 (stereo not shown)
- inhibition in vivo at 20 mg/kg (gastric acid secretion [1]; rat, id, 20 mg/kg): 68%
- ED50 (gastric acid secretion [2]): 7 mg/kg
